Two molecules from patent US5608095A, “Alkyl-4-silyl-phenols and esters thereof as antiatherosclerotic agents” (Hoechst Marion Roussel, Inc., priority 1996, dated 1997) can be followed below.

For one data set, the system named is VCAM-1. Briefly: Cell surface ELISA for VCAM-1 in human umbilical vein endothelial cells (HUVEC), TNF-alpha induced. The settings on record: 50 μM, average of three runs. It is filed as cell-based. How it is done: Cell Surface ELISA for VCAM-1/ICAM-1
Proliferating human umbilical vein endothelial cells (HUVEC) or human aortic smooth muscle cells (HASMC) from Clonetics (San Diego, Calif.) were plated onto 96-well plates in 100 μL medium per well at 20,000 cells per cm^2. The cultures were maintained in growth medium (EGM or SMGM2, Clonetics, San Diego, Calif.) for two days prior to addition of cytokines or drugs. Cytokines plus or minus compounds were added for 20 to 24 hours prior to analysis for adhesion molecule levels. Tumor necrosis factor (Genzyme, Cambridge, Mass.) was added to cultures at 500-1000 units/mL. Interleukin-4 (GIBCO-BRL, Gaithersburg, Md.) was added to cultures at 100-200 pg/mL. (Additions were made by transferring 100 [μL of cytokines plus compounds serially diluted on a separate 96-well plate into the plates containing cells. The medium on the cultures was not exchanged prior to addition of effectors). The culture medium was removed, and the monolayers were washed twice with Hanks buffered saline solution (HBSS) at room temperature. The primary antibody (anti-human VCAM-1 from Upstate Biotechnology, Inc., Lake Placid, N.Y. or anti-human ICAM-1 from Immunotech, Inc., Westbrook, Me.) was added to each well (1 μg/mL in HBSS plus 5% newborn calf serum, GIBCO-BRL, Gaithersburg, Md.) and incubated at 37° C. for 1 hr. The wells were washed twice with HBSS, then 100 μL of a 1/1000 dilution of goat anti-mouse IgG conjugated to horse radish peroxidase (BioRad, Hercules, Calif.) in HBSS plus 5% newborn calf serum was added to each well and incubated for 1 hr at 37° C. The wells were washed three times with HBSS, then 100 μL of TMB substrate (BioRad, Hercules, Calif.) was added to each well. The reaction was stopped after blue color developed by addition of 50 μL of 1N H2 SO4. Absorbance is measured at 450 nm with a plate reader. IC50 values were determined from curves of absorbance values obtained from serial dilutions of compounds (dissolved in dimethyl sulfoxide).
The IC50 value is defined as the drug concentration that inhibits the cytokine-induced adhesion molecule expression by 50%. Maximal values for adhesion molecule expression in cytokine-induced cultures was […] the basal level of adhesion molecule expression (minus cytokines) in the cultures to determine the level of induction. […] Each drug concentration was tested in quadruplicate wells. Single point tests of compounds at 50 μM were assayed as described for IC50 determinations, except that the data represent the level of inhibition without correction for basal expression. (Basal adhesion molecule expression was 10-20% of the total induced expression). Table 1 summarizes the ability of various compounds of this invention to inhibit VCAM-1 using human aortic smooth muscle cells (HASMC). In these experiments, the cells were coincubated with interleukin-4 and the compounds listed about 20 hr before assaying cell surface VCAM-1 levels. Each column represents a separate experiment.
In these experiments, the cells were coincubated with tumor necrosis factor-alpha along with the indicated compounds about 20 to 24 hr before assaying cell surface adhesion molecule expression.
(In an ELISA, binding on a coated surface is turned into a signal by an enzyme label.)

The nature of data set [1]: Clinical chemistries in serum of rats. It is filed as in vivo, male Sprague-Dawley rats. The note with it: for response vs control in vivo at 0.3 % / response vs control in vivo at 0.1 %: po, 96 h. Put shortly:
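Male Sprague-Dawley rats (50-100 g, N=5/group) fed compound as 0.3% or 0.1% dietary admixture for 4 days vs untreated-chow controls. Non-fasted rats bled by cardiac puncture on day 5; fresh serum analysed on autoanalyzer for ALP, ALT, AST (units/L) and cholesterol, triglycerides, glucose (mg/dL).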

Each structure is given as a SMILES string. Where two headings read alike, the source gives them in different places.

`CC(C)(C)c1cc(OC[Si](C)(C)c2ccccc2)cc(C(C)(C)C)c1OC(=O)CCC(=O)O` [MDL 103,076, 2,6-Di-t-butyl-4-[(dimethylphenylsilyl)methyloxy]phenol succinic acid ester] came in with a VCAM-1 % inh. in the data set on VCAM-1 of 7.3%. Further, the response vs control in vivo at 0.3 % in data set [1] (Rattus norvegicus, read-out: CHOL (total cholesterol), percent of control) is 114%. Also, the response vs control in vivo at 0.3 % in data set [1] (Rattus norvegicus, read-out: TRIG (triglycerides), percent of control) came to 77%. Moreover, in data set [1] (rat serum, diet 0.3%, 4 days), the “ALP (alkaline phosphatase), percent of control” value is reported as 201%; the “ALT (alanine aminotransferase), percent of control” value worked out at 132%; the “AST (aspartate aminotransferase), percent of control” value is on record as 99%; the “GLUC (glucose), percent of control” value is 99%.

Consider `CN(C)c1ccc([Si](C)(C)COc2cc(C(C)(C)C)c(O)c(C(C)(C)C)c2)cc1` [MDL 104,556, 2,6-Di-t-butyl-4-[(4-N,N-dimethylaminophenyldimethylsilyl)methyloxy]phenol], for which the VCAM-1 % inh. in the data set with VCAM-1 stood at 33.3%. In addition, the response vs control in vivo at 0.1 % in data set [1] (rat serum, diet 0.1%, 4 days, read-out: CHOL (total cholesterol), percent of control) amounted to 96%; in data set [1] (rat serum, diet 0.1%, 4 days, read-out: TRIG (triglycerides), percent of control) it was 74%. The response vs control in vivo at 0.3 % stood at 119% in data set [1] (rat serum, diet 0.3%, 4 days, read-out: CHOL (total cholesterol), percent of control) and 95% in data set [1] (rat serum, diet 0.3%, 4 days, read-out: TRIG (triglycerides), percent of control). Also, the “ALP (alkaline phosphatase), percent of control” value in data set [1] (rat serum, diet 0.1%, 4 days) was determined as 112%; in data set [1] (rat serum, diet 0.3%, 4 days) it was 112%. Moreover, the “ALT (alanine aminotransferase), percent of control” value was 125% in data set [1] (rat serum, diet 0.1%, 4 days) and 106% in data set [1] (rat serum, diet 0.3%, 4 days). The “AST (aspartate aminotransferase), percent of control” value in data set [1] (rat serum, diet 0.1%, 4 days) is given as 107%; in data set [1] (rat serum, diet 0.3%, 4 days), 101%. Also, the “GLUC (glucose), percent of control” value stood at 102% in data set [1] (rat serum, diet 0.1%, 4 days) and 113% in data set [1] (rat serum, diet 0.3%, 4 days).
